Test system: 966289-007-R4-J1-PDC complex spheroid viability
Assay: Anticancer human tumor 966289-007-R4-J1-PDC patient-derived pancreatic adenocarcinoma cell line growth inhibition [RAS]
Conditions: for IC50: curve of first compound; for viability, T/C: stronger effect = lower value; active = viability on the fitted dose curve at most 10% of control; inactive = the rest
Method in brief: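 Agents were tested in combination matrices in half-log decrements from a top concentration at or near clinical Cmax (10 microM if undetermined). Targets were multi-cell spheroids of tumour lines plus HUVEC and MSC stromal cells.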

[1] = second compound 0.00316 µM, first compound 0.0316 µM
[2] = second compound 0.00316 µM, first compound 0.1 µM
[3] = second compound 0.00316 µM, first compound 0.316 µM
[4] = second compound 0.00316 µM, first compound 1 µM
[5] = second compound 0.00316 µM, first compound 3.16 µM
[6] = second compound 0.00316 µM, first compound 10 µM
[7] = second compound 0.01 µM, first compound 0.0316 µM
[8] = second compound 0.01 µM, first compound 0.1 µM
[9] = second compound 0.01 µM, first compound 0.316 µM
[10] = second compound 0.01 µM, first compound 1 µM
[11] = second compound 0.01 µM, first compound 3.16 µM
[12] = second compound 0.01 µM, first compound 10 µM
[13] = second compound 0.0316 µM, first compound 0.0316 µM
[14] = second compound 0.0316 µM, first compound 0.1 µM
[15] = second compound 0.0316 µM, first compound 0.316 µM
[16] = second compound 0.0316 µM, first compound 1 µM
[17] = second compound 0.0316 µM, first compound 3.16 µM
[18] = second compound 0.0316 µM, first compound 10 µM
[19] = second compound 0.1 µM, first compound 0.0316 µM
[20] = second compound 0.1 µM, first compound 0.1 µM
[21] = second compound 0.1 µM, first compound 0.316 µM
[22] = second compound 0.1 µM, first compound 1 µM
[23] = second compound 0.1 µM, first compound 3.16 µM
[24] = second compound 0.1 µM, first compound 10 µM
[25] = second compound 0.316 µM, first compound 0.0316 µM
[26] = second compound 0.316 µM, first compound 0.1 µM
[27] = second compound 0.316 µM, first compound 0.316 µM
[28] = second compound 0.316 µM, first compound 1 µM
[29] = second compound 0.316 µM, first compound 3.16 µM
[30] = second compound 0.316 µM, first compound 10 µM
[31] = second compound 1 µM, first compound 0.0316 µM
[32] = second compound 1 µM, first compound 0.1 µM
[33] = second compound 1 µM, first compound 0.316 µM
[34] = second compound 1 µM, first compound 1 µM
[35] = second compound 1 µM, first compound 3.16 µM
[36] = second compound 1 µM, first compound 10 µM
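Also: spheroids exposed to agents for one week before readout.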
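For viability, T/C in this document: percent viability relative to DMSO vehicle control wells as 100%.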

CCC(CC)c1cc(NC2CCC(N)C2)n2nccc2n1 (stereo unspecified) + C=CC(=O)N1CCN(c2nc(OCC3CCCN3C)nc3c(F)c(-c4nc(N)cc(C)c4C(F)(F)F)c(Cl)cc23)C(C)C1
1.84 µM: IC50 (second compound 1 µM)
1.83 µM: IC50 (second compound 0.01 µM)
1.9 µM: IC50 (second compound 0.00316 µM)
1.86 µM: IC50 (second compound 0.316 µM)
active: viability, T/C [5] 2.16% | viability, T/C [6] 2.13% | viability, T/C [11] 2.2% | viability, T/C [12] 2.15% | viability, T/C [17] 2.15% | viability, T/C [18] 1.75% | viability, T/C [23] 2.07% | viability, T/C [24] 2.09% | viability, T/C [29] 2.42% | viability, T/C [30] 2.33% | viability, T/C [35] 2.27% | viability, T/C [36] 2.77%
inactive: viability, T/C [1] 104% | viability, T/C [2] 93.6% | viability, T/C [3] 112% | viability, T/C [4] 131% | viability, T/C [7] 99.5% | viability, T/C [8] 95.7% | viability, T/C [9] 101% | viability, T/C [10] 114% | viability, T/C [13] 92% | viability, T/C [14] 102% | viability, T/C [15] 103% | viability, T/C [16] 123% | viability, T/C [19] 103% | viability, T/C [20] 103% | viability, T/C [21] 111% | viability, T/C [22] 117% | viability, T/C [25] 103% | viability, T/C [26] 97.9% | viability, T/C [27] 98.8% | viability, T/C [28] 125% | viability, T/C [31] 91.4% | viability, T/C [32] 92.1% | viability, T/C [33] 119% | viability, T/C [34] 113%
1.88 µM: IC50 (second compound 0.1 µM)
1.85 µM: IC50 (second compound 0.0316 µM)

Cc1nc(N2CCC3(CC2)COC(C)C3N)c(CO)nc1Sc1ccnc(N)c1Cl (stereo unspecified) + C=CC(=O)N1CCN(c2nc(OCC3CCCN3C)nc3c(F)c(-c4nc(N)cc(C)c4C(F)(F)F)c(Cl)cc23)C(C)C1
inactive: viability, T/C [1] 100% | viability, T/C [2] 90.2% | viability, T/C [3] 121% | viability, T/C [4] 105% | viability, T/C [5] 106% | viability, T/C [6] 80% | viability, T/C [7] 109% | viability, T/C [8] 89.6% | viability, T/C [9] 109% | viability, T/C [10] 94.6% | viability, T/C [11] 100% | viability, T/C [12] 98.6% | viability, T/C [13] 106% | viability, T/C [14] 97.9% | viability, T/C [15] 110% | viability, T/C [16] 105% | viability, T/C [17] 108% | viability, T/C [18] 84.7% | viability, T/C [19] 91.1% | viability, T/C [20] 107% | viability, T/C [21] 107% | viability, T/C [22] 99.9% | viability, T/C [23] 101% | viability, T/C [24] 81.6% | viability, T/C [25] 111% | viability, T/C [26] 102% | viability, T/C [27] 123% | viability, T/C [28] 114% | viability, T/C [29] 97.8% | viability, T/C [30] 101% | viability, T/C [31] 91.3% | viability, T/C [32] 98.1% | viability, T/C [33] 112% | viability, T/C [34] 107% | viability, T/C [35] 104% | viability, T/C [36] 97.1%
> 10 µM: IC50 (second compound 0.00316 µM) | IC50 (second compound 0.01 µM) | IC50 (second compound 0.0316 µM) | IC50 (second compound 0.1 µM) | IC50 (second compound 0.316 µM) | IC50 (second compound 1 µM)

NC1c2ccccc2OC12CCN(c1cnc3c(N4CCCc5ncccc54)n[nH]c3n1)CC2 (stereo unspecified) + C=CC(=O)N1CCN(c2nc(OCC3CCCN3C)nc3c(F)c(-c4nc(N)cc(C)c4C(F)(F)F)c(Cl)cc23)C(C)C1
inactive: viability, T/C [1] 117% | viability, T/C [2] 90.1% | viability, T/C [3] 126% | viability, T/C [4] 102% | viability, T/C [5] 113% | viability, T/C [6] 103% | viability, T/C [7] 113% | viability, T/C [8] 104% | viability, T/C [9] 104% | viability, T/C [10] 122% | viability, T/C [11] 107% | viability, T/C [12] 118% | viability, T/C [13] 113% | viability, T/C [14] 103% | viability, T/C [15] 133% | viability, T/C [16] 113% | viability, T/C [17] 126% | viability, T/C [18] 119% | viability, T/C [19] 101% | viability, T/C [20] 103% | viability, T/C [21] 94.2% | viability, T/C [22] 105% | viability, T/C [23] 119% | viability, T/C [24] 107% | viability, T/C [25] 109% | viability, T/C [26] 91.4% | viability, T/C [27] 107% | viability, T/C [28] 120% | viability, T/C [29] 102% | viability, T/C [30] 106% | viability, T/C [31] 105% | viability, T/C [32] 114% | viability, T/C [33] 123% | viability, T/C [34] 113% | viability, T/C [35] 116% | viability, T/C [36] 124%
> 10 µM: IC50 (second compound 0.00316 µM) | IC50 (second compound 0.01 µM) | IC50 (second compound 0.0316 µM) | IC50 (second compound 0.1 µM) | IC50 (second compound 0.316 µM) | IC50 (second compound 1 µM)

Reference: PubChem BioAssay AID2060897 (Molecular Pharmacology Branch, DTP, NCI, 2025)
